# The source made the active and inactive calls. The calls are words filed in the database; no cut-off is given here.
# Molecular target: Urease (Canavalia ensiformis, UniProt P07374)
# Experiment: Inhibition of jack bean urease assessed as ammonia production after 30 mins by indophenol method
# Conditions: not given
# Urease, sequence (P07374 whole entry): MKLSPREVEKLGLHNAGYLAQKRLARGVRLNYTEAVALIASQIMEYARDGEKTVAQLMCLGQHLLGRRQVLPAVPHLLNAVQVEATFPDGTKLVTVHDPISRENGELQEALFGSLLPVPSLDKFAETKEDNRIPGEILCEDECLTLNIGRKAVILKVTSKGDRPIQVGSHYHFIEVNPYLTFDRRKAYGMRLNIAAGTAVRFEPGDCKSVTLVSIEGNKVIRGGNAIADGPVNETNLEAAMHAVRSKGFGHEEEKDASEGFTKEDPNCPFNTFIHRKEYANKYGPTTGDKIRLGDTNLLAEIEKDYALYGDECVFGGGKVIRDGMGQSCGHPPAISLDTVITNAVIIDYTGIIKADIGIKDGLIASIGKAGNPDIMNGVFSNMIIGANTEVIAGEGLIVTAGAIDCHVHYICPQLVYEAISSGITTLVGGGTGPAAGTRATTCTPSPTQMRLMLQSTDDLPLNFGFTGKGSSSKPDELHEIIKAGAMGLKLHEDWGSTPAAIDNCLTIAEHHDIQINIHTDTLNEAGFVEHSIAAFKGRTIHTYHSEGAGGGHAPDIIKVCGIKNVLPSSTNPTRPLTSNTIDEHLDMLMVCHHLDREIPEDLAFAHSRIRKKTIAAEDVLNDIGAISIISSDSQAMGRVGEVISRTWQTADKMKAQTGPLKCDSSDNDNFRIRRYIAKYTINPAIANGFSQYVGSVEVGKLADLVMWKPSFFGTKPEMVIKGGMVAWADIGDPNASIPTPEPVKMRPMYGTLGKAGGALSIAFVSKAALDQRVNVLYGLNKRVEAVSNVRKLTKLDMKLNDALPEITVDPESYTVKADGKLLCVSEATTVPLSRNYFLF
SMILES,IC50 [nM],Ki [nM]
NC(=S)N/N=C/c1ccccc1OCc1ccccc1,263,152
COc1cc(/C=N/NC(N)=S)cc(OC)c1OC,989,910
NC(=S)N/N=C/C=C/c1ccccc1,457,407
N/C(S)=N/N=C/c1cccc(Br)c1,767,670
NC(=S)N/N=C/c1ccccc1Cl,215,170
COc1ccc(/C=N/NC(N)=S)cc1OCc1ccccc1,330,191
COc1ccc(/C=N/NC(N)=S)cc1,887,807
NC(=S)N/N=C/c1ccc(O)cc1,682,391
NC(=S)N/N=C/c1ccc(Cl)cc1,410,398
NC(=S)N/N=C/c1cccc(Cl)c1,670,625
N/C(S)=N/N=C/c1cccc([N+](=O)[O-])c1,102,90
N/C(S)=N/N=C/c1ccc([N+](=O)[O-])cc1,547,497
NC(=S)N/N=C/c1cccc(O)c1O,220,127
COc1cc(/C=N/NC(N)=S)cc(OC)c1O,233,134
NC(N)=S [THIOUREA],,19600
CN(C)c1ccc(/C=N/NC(N)=S)cc1,127,122
COc1cccc(/C=N/NC(N)=S)c1,177,127
C/C=C/C=N/NC(N)=S,746,430
NC(=S)N/N=C/c1ccc(Br)cc1,707,770

# Molecular target: Urease (Canavalia ensiformis) (UniProt P07374)
# Sequence (P07374 whole entry, looked up): as the sequence (P07374 whole entry) above
# Conditions: 0.01 to 0.001 uM
row,SMILES,inhibition
1,N/C(S)=N/N=C/c1cccc([N+](=O)[O-])c1,Active

# From ChEMBL document CHEMBL1909545, “Synthesis, biological assay in vitro and molecular docking studies of new Schiff base derivatives as potential urease inhibitors” (Eur J Med Chem, 2011)
